Test results from article PMC10587159, “Biosynthesis and engineering of the nonribosomal peptides with a C-terminal putrescine” (Nature Communications, 2023).
Non-standard residues stand in square brackets, D forms with d. Residues, ends and D or L forms follow the SMILES beside them. *: point of attachment. Lauroyl = CCCCCCCCCCCC(=O)*; NH(CH2)4NH2 = NCCCCN*

Legend:
human cells Kasumi = assay: MTT cytotoxicity assay, Kasumi; assay type: cell-based; conditions: 24 h
How it was run: (§1)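 An MTT-based assay, run as in prior work, gives compound cytotoxicity here. The tested lines undergo routine authentication through morphology and gene/protein expression checks.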

tumor lines = assay: MTT cytotoxicity assay, statements on the whole panel; assay type: cell-based, human; conditions: MTT assay, panel of tumor cell lines
How it was run: as §1

[1] = system: S. brevitalea DSM 7029 wild type; assay: Biofilm formation of DSM 7029 wild type with compounds (crystal violet); assay type: cell-based, Schlegelella brevitalea DSM 7029
How it was run: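 CYMG medium inoculated 1:100 from overnight culture with compounds at 0.1 μg/μL; OD600 read hourly for 42 h with shaking. Biofilm quantified at 18 h and 36 h by 0.1% crystal violet staining, 95% ethanol elution, OD600. Pigment secretion measured as OD600 of cell-free supernatant.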

PvdQ-like acylase GdnD = assay: Deacylation by acylase GdnD (cell lysate, LC-MS); assay type: biochemical, Schlegelella brevitalea DSM 7029; conditions: 100 μL E. coli cell lysate with GdnD, 5 μL 10 mM substrate, 30 °C; 7 and 8: 4 h, 16 h, 27 h; other substrates 16 h; boiled lysate as control
Description: The hydrolysis function of PvdQ-like acylase GdnD was tested. GdnD is predicted to be a periplasmic protein by PSORTb[13]. The collected pellet from 50 mL LB dissolved with 8 mL buffer C (50 mM Tris, 300 mM NaCl, 5 mM MgCl2, pH 7.6), and lysed by cell disruption. Then, one hundred microliter of the cell lysate was incubated with 5 μL 10 mM substrates 7 and 8 for 4 h, 16 h, and 27 h at 30 °C. The negative control was boiled cell lysate. The other substrates (13, 14, 15, 16, and 17) incubated with the cell lysate dealt for 16 h at 30 °C. Then, the reaction was stopped by the addition of the 100 μL MeOH, and the final mixture was checked by LC‒MS analysis (5%‒95% ACN in 15 min) according to the above condition.

[2] = relative to wild type treated with H2O = 100%, crystal violet 0.1%, OD600, mean of n = 3

CCCCCCCCCCCC(=O)N[C@H](CCSC)C(=O)N[C@H](CC(N)=O)C(=O)N1CCC[C@H]1C(=O)N[C@H](C(=O)N[C@H](Cc1ccccc1)C(=O)N1CCC[C@H]1C(=O)N[C@@H](Cc1c[nH]c2ccccc12)C(=O)N[C@@H](C(=O)N[C@@H](C)C(=O)N[C@H](C)C(=O)N[C@@H](CO)C(=O)N[C@@H](C)C(=O)NCCCCN)C(C)C)C(C)C [Compound 7, Glidonin G] (Lauroyl-[dM][dN]PV[dF]PW[dV]A[dA]SA-{NH(CH2)4NH2})
IC50 (human cells Kasumi): 7.93 ± 0.35 µM
cytotoxic / antitumor activity in words (tumor lines): broad-spectrum cytotoxicity
effect on biofilm formation of DSM 7029 wild type in words ([1]; crystal violet staining): increased biofilm formation
biofilm formation 18 h, Average [1, 2]: 152.732%
biofilm formation 36 h, Average [1, 2]: 138.926%
deacylation by GdnD, nonacylated product by LC-MS (PvdQ-like acylase GdnD): nonacylated products 1 and 2 were detected
